Laboratory results from patent US20230117034A1, “PYRAZOLOTRIAZINES” (Bayer Aktiengesellschaft, priority 2019, published 2023).

Each compound was assayed on CAL-120, human breast adenocarcinoma cells (assay: Proliferation assay CAL-120 (crystal violet, 4 days)). Conditions: Homo sapiens, CAL-120, 96 h, CAL-120 cells, median, read-out: Prolif-CAL-120, IC50-[mol/l] (median).
Type: cell-based
Procedure, shortened: (§1)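 CAL-120 or MDA-MB-231 cells grown 24 h, then exposed 4 days to compound (0.01–10 micromol/L, 0.1% DMSO). Crystal violet staining, absorbance at 595 nm, normalised to a zero-point plate (0%) and untreated cells (100%); IC50 by 4-parameter fit.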

IC50 | SMILES
26.3 nM | Cc1ccccc1-c1cnc(CNc2nc(N3CCOCC3)nc3c(Br)cnn23)[nH]1 [Example 85, 8-bromo-N-{[5-(2-methylphenyl)-1H-imidazol-2-yl]methyl}-2-(morpholin-4-yl)pyrazolo[1,5-a][1,3,5]triazin-4-amine]
17.4 nM | Brc1cnn2c(NCc3ncc(-c4ccccn4)[nH]3)nc(N3CCOCC3)nc12 [Example 90, 8-bromo-2-(morpholin-4-yl)-N-{[5-(pyridin-2-yl)-1H-imidazol-2-yl]methyl}pyrazolo[1,5-a][1,3,5]triazin-4-amine]
311 nM | FC(F)(F)Oc1ccccc1-c1nnc(CNc2nc(N3CCOCC3)nc3c(Br)cnn23)[nH]1 [Example 74, 8-bromo-2-(morpholin-4-yl)-N-({5-[2-(trifluoromethoxy)phenyl]-4H-1,2,4-triazol-3-yl}methyl)pyrazolo[1,5-a][1,3,5]triazin-4-amine]
333 nM | Clc1ccccc1-c1nnc(CNc2nc(N3CCOCC3)nc3c(Br)cnn23)[nH]1 [Example 69, 8-bromo-N-{[5-(2-chlorophenyl)-4H-1,2,4-triazol-3-yl]methyl}-2-(morpholin-4-yl)pyrazolo[1,5-a][1,3,5]triazin-4-amine]
85.2 nM | FC(F)(F)Oc1cccc(-c2cnc(CNc3nc(N4CCOCC4)nc4c(Br)cnn34)[nH]2)c1 [Example 82, 8-bromo-2-(morpholin-4-yl)-N-({5-[3-(trifluoromethoxy)phenyl]-1H-imidazol-2-yl}methyl)pyrazolo[1,5-a][1,3,5]triazin-4-amine]
12.1 nM | FC(F)(F)c1cccc(-c2cnc(CNc3nc(N4CCOCC4)nc4c(Br)cnn34)[nH]2)c1 [Example 83, 8-bromo-2-(morpholin-4-yl)-N-({5-[3-(trifluoromethyl)phenyl]-1H-imidazol-2-yl}methyl)pyrazolo[1,5-a][1,3,5]triazin-4-amine]
32.4 nM | Clc1ccc(-c2cnc(CNc3nc(N4CCOCC4)nc4c(Br)cnn34)[nH]2)cc1 [Example 72, 8-bromo-N-{[5-(4-chlorophenyl)-1H-imidazol-2-yl]methyl}-2-(morpholin-4-yl)pyrazolo[1,5-a][1,3,5]triazin-4-amine]
32.9 nM | FC(F)(F)Oc1ccccc1-c1cnc(CNc2nc(N3CCOCC3)nc3c(Br)cnn23)[nH]1 [Example 89, 8-bromo-2-(morpholin-4-yl)-N-({5-[2-(trifluoromethoxy)phenyl]-1H-imidazol-2-yl}methyl)pyrazolo[1,5-a][1,3,5]triazin-4-amine]
14.2 nM | COc1cccc(-c2cnc(CNc3nc(N4CCOCC4)nc4c(Br)cnn34)[nH]2)c1 [Example 80, 8-bromo-N-{[5-(3-methoxyphenyl)-1H-imidazol-2-yl]methyl}-2-(morpholin-4-yl)pyrazolo[1,5-a][1,3,5]triazin-4-amine]
6.58 nM | COc1ccccc1-c1cnc(CNc2nc(N3CCOCC3)nc3c(Br)cnn23)[nH]1 [Example 87, 8-bromo-N-{[5-(2-methoxyphenyl)-1H-imidazol-2-yl]methyl}-2-(morpholin-4-yl)pyrazolo[1,5-a][1,3,5]triazin-4-amine]
14.2 nM | FC(F)(F)c1ccccc1-c1cnc(CNc2nc(N3CCOCC3)nc3c(Br)cnn23)[nH]1 [Example 88, 8-bromo-2-(morpholin-4-yl)-N-({5-[2-(trifluoromethyl)phenyl]-1H-imidazol-2-yl}methyl)pyrazolo[1,5-a][1,3,5]triazin-4-amine]
4.67 nM | Fc1cccc(-c2cnc(CNc3nc(N4CCOCC4)nc4c(Br)cnn34)[nH]2)c1 [Example 79, 8-bromo-N-{[5-(3-fluorophenyl)-1H-imidazol-2-yl]methyl}-2-(morpholin-4-yl)pyrazolo[1,5-a][1,3,5]triazin-4-amine]
4.14 nM | Clc1cccc(-c2cnc(CNc3nc(N4CCOCC4)nc4c(Br)cnn34)[nH]2)c1 [Example 81, 8-bromo-N-{[5-(3-chlorophenyl)-1H-imidazol-2-yl]methyl}-2-(morpholin-4-yl)pyrazolo[1,5-a][1,3,5]triazin-4-amine]
107 nM | Brc1cnn2c(NCc3ncc(-c4cccnc4)[nH]3)nc(N3CCOCC3)nc12 [Example 84, 8-bromo-2-(morpholin-4-yl)-N-{[5-(pyridin-3-yl)-1H-imidazol-2-yl]methyl}pyrazolo[1,5-a][1,3,5]triazin-4-amine]
53.2 nM | Fc1ccccc1-c1nnc(CNc2nc(N3CCOCC3)nc3c(Br)cnn23)[nH]1 [Example 75, 8-bromo-N-{[5-(2-fluorophenyl)-4H-1,2,4-triazol-3-yl]methyl}-2-(morpholin-4-yl)pyrazolo[1,5-a][1,3,5]triazin-4-amine]
14.4 nM | Fc1ccccc1-c1cnc(CNc2nc(N3CCOCC3)nc3c(Br)cnn23)[nH]1 [Example 86, 8-bromo-N-{[5-(2-fluorophenyl)-1H-imidazol-2-yl]methyl}-2-(morpholin-4-yl)pyrazolo[1,5-a][1,3,5]triazin-4-amine]

Further lines, the compound ahead of its results:

SMILES | IC50
Fc1cccc(-c2cnn3c(NCc4nc5ccccc5[nH]4)nc(N4CCOCC4)nc23)c1 [Example 91, N-[(1H-benzimidazol-2-yl)methyl]-8-(3-fluorophenyl)-2-(morpholin-4-yl)pyrazolo[1,5-a][1,3,5]triazin-4-amine] | 105 nM
C[C@@H]1CN(c2nc(NCc3nnc(-c4ccccc4)[nH]3)n3ncc(Br)c3n2)C[C@H](C)O1 [Example 78, 8-bromo-2-[(2R,6S)-2,6-dimethylmorpholin-4-yl]-N-[(5-phenyl-4H-1,2,4-triazol-3-yl)methyl]pyrazolo[1,5-a][1,3,5]triazin-4-amine] | 25.7 nM
Fc1ccc2[nH]c(CNc3nc(N4CCOCC4)nc4c(-c5cnn(C(F)F)c5)cnn34)nc2c1F [Example 422, N-[(4,5-difluoro-1H-benzimidazol-2-yl)methyl]-8-[1-(difluoromethyl)-1H-pyrazol-4-yl]-2-(morpholin-4-yl)pyrazolo[1,5-a][1,3,5]triazin-4-amine] | 6.88 nM
COC(=O)C1CCN(c2nc(NCc3nnc(-c4ccccc4)[nH]3)n3ncc(Br)c3n2)CC1 [Example 77, methyl 1-(8-bromo-4-{[(5-phenyl-4H-1,2,4-triazol-3-yl)methyl]amino}pyrazolo[1,5-a][1,3,5]triazin-2-yl)piperidine-4-carboxylate] | 338 nM
CC(C)c1cnn2c(NCc3nc4ccccc4[nH]3)nc(N3CCN(C)CC3)nc12 [Example 2, N-[(1H-benzimidazol-2-yl)methyl]-2-(4-methylpiperazin-1-yl)-8-(propan-2-yl)pyrazolo[1,5-a][1,3,5]triazin-4-amine] | 31.2 nM
OC[C@@H]1CCCCN1c1nc(NCc2nnc(-c3ccccc3)[nH]2)n2ncc(Br)c2n1 [Example 70, [(2S)-1-(8-bromo-4-{[(5-phenyl-4H-1,2,4-triazol-3-yl)methyl]amino}pyrazolo[1,5-a][1,3,5]triazin-2-yl)piperidin-2-yl]methanol] | 49 nM
c1ccc2[nH]c(CNc3nc(N4CCOCC4)nc4c(C5CC5)cnn34)nc2c1 [Example 92, N-[(1H-benzimidazol-2-yl)methyl]-8-cyclopropyl-2-(morpholin-4-yl)pyrazolo[1,5-a][1,3,5]triazin-4-amine] | 12 nM
Brc1cnn2c(NCc3nnc(-c4ccccc4)[nH]3)nc(N3CC4(COC4)C3)nc12 [Example 65, 8-bromo-2-(2-oxa-6-azaspiro[3.3]heptan-6-yl)-N-[(5-phenyl-4H-1,2,4-triazol-3-yl)methyl]pyrazolo[1,5-a][1,3,5]triazin-4-amine] | 10 nM
COC1CCN(c2nc(NCc3nnc(-c4ccccc4)[nH]3)n3ncc(Br)c3n2)CC1 [Example 76, 8-bromo-2-(4-methoxypiperidin-1-yl)-N-[(5-phenyl-4H-1,2,4-triazol-3-yl)methyl]pyrazolo[1,5-a][1,3,5]triazin-4-amine] | 110 nM
OCC1COCCN1c1nc(NCc2nc3ccccc3[nH]2)n2ncc(Br)c2n1 (centres unmarked) [Example 67, (4-{4-[(1H-benzimidazol-2-ylmethyl)amino]-8-bromopyrazolo[1,5-a][1,3,5]triazin-2-yl}morpholin-3-yl)methanol] | 20.8 nM
C[C@@H]1CN(c2nc(NCc3nc4ccccc4[nH]3)n3ncc(Br)c3n2)C[C@H](C)O1 [Example 73, N-[(1H-benzimidazol-2-yl)methyl]-8-bromo-2-[(2R,6S)-2,6-dimethylmorpholin-4-yl]pyrazolo[1,5-a][1,3,5]triazin-4-amine] | 23 nM
CC1(C)CN(c2nc(NCc3nnc(-c4ccccc4)[nH]3)n3ncc(Br)c3n2)CCO1 [Example 68, 8-bromo-2-(2,2-dimethylmorpholin-4-yl)-N-[(5-phenyl-4H-1,2,4-triazol-3-yl)methyl]pyrazolo[1,5-a][1,3,5]triazin-4-amine] | 40.2 nM
OC[C@H]1CCCCN1c1nc(NCc2nnc(-c3ccccc3)[nH]2)n2ncc(Br)c2n1 [Example 71, [(2R)-1-(8-bromo-4-{[(5-phenyl-4H-1,2,4-triazol-3-yl)methyl]amino}pyrazolo[1,5-a][1,3,5]triazin-2-yl)piperidin-2-yl]methanol] | 32 nM
c1ccc(-c2nnc(CNc3nc(N4CCOCC4)nc4c(C5CC5)cnn34)[nH]2)cc1 [Example 93, 8-cyclopropyl-2-(morpholin-4-yl)-N-[(5-phenyl-4H-1,2,4-triazol-3-yl)methyl]pyrazolo[1,5-a][1,3,5]triazin-4-amine] | 100 nM

The compounds below were run on MDA-MB-231, human breast cancer cells (assay: Proliferation assay MDA-MB-231 (crystal violet, 4 days)). Conditions: Homo sapiens, MDA-MB-231, 96 h, MDA-MB-231 cells, median, read-out: Prolif-MDA MB-231, IC50-[mol/l] (median).
Type: cell-based
Procedure, shortened: as §1

IC50 | SMILES
20.1 nM | Fc1ccc2[nH]c(CNc3nc(N4CCOCC4)nc4c(-c5cnn(C(F)F)c5)cnn34)nc2c1F [Example 422, N-[(4,5-difluoro-1H-benzimidazol-2-yl)methyl]-8-[1-(difluoromethyl)-1H-pyrazol-4-yl]-2-(morpholin-4-yl)pyrazolo[1,5-a][1,3,5]triazin-4-amine]
373 nM | CC(C)c1cnn2c(NCc3nc4ccccc4[nH]3)nc(N3CCOC(C)(C)C3)nc12 [Example 12, N-[(1H-benzimidazol-2-yl)methyl]-2-(2,2-dimethylmorpholin-4-yl)-8-(propan-2-yl)pyrazolo[1,5-a][1,3,5]triazin-4-amine]
